Laboratory results as given in patent publication US20230416205A1, “COMPOUNDS, COMPOSITIONS, AND METHODS” (Denali Therapeutics Inc, priority 2020, published 2023).
Read-outs that look alike come from different tables or passages of the source.

Test system: NLRP3
Assay: IL-1β secretion assay in PMA-differentiated, LPS/nigericin-stimulated THP-1 cells (384-well, ELISA read-out)
Format: cell-based, human
In short: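 THP-1 cells differentiated with PMA (5 ng/mL, 40 h), primed in serum-free medium with 25 ng/mL LPS for 2 h, treated with compounds 1 h (0.5% DMSO), then stimulated with nigericin for 2 h at 37 °C. Supernatant IL-1β measured by ELISA; responses normalized to LPS+5 μM nigericin and LPS-only controls.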

[1] = Homo sapiens, THP-1, IL-1β secretion, PMA-differentiated THP-1 cells, LPS then nigericin stimulation, ELISA read at 450 nm, read-out: Activity
[2] = Homo sapiens, THP-1, Table 4, IL-1β secretion, LPS/nigericin-stimulated THP-1 cells, read-out: IC50
[3] = IL-1β secretion, PMA-differentiated THP-1 cells, LPS then nigericin stimulation, ELISA read at 450 nm, read-out: Activity
[4] = Table 4, IL-1β secretion, LPS/nigericin-stimulated THP-1 cells, read-out: IC50

O=C(CN1CC2(CC2)c2cc(Br)ccc2C1=O)Nc1ccc2[nH]ncc2c1 [Example 170, 2-(6-bromo-1-oxospiro[3H-isoquinoline-4,1′-cyclopropane]-2-yl)-N-(1H-indazol-5-yl)acetamide]
IC50 [1]: < 10 µM | IC50 [2]: 1.12 µM

O=C1c2ccc(Br)cc2C2(CC2)CN1C1(C(=O)Nc2ncccn2)CC1 [Example 77, 1-(6-bromo-1-oxospiro[3H-isoquinoline-4,1′-cyclopropane]-2-yl)-N-pyrimidin-2-ylcyclopropane-1-carboxamide]
IC50 [1]: < 10 µM | IC50 [2]: 3.72 µM

O=C(CN1CC2(CC2)c2cc(Br)ccc2C1=O)Nc1ncc(Cl)cn1 [Example 4]
IC50 [1]: < 10 µM | IC50 [2]: 0.039 µM

C[C@H]1C[C@@]12CN(CC(=O)Nc1ncc(F)cn1)C(=O)c1ccc(Br)cc12 (single isomer, unassigned) [Example 282, 2-[(2′s,4r)-6-bromo-2′-methyl-1-oxospiro[3H-isoquinoline-4,1′-cyclopropane]-2-yl]-N-(5-fluoropyrimidin-2-yl)acetamide]
IC50 [3]: < 10 µM | IC50 [4]: 1.05 µM

O=C(CN1CC2(CC2)c2cc(Br)ccc2C1=O)Nc1nc2ncccc2o1 [Example 209, 2-(6-bromo-1-oxo-spiro[3H-isoquinoline-4,1′-cyclopropane]-2-yl)-N-oxazolo[4,5-b]pyridin-2-yl-acetamide]
IC50 [1]: < 10 µM | IC50 [2]: 3.56 µM

O=C(CN1CC2(CC2)c2cc(Br)ccc2C1=O)Nc1nccc(=O)[nH]1 [Example 214, 2-(6-bromo-1-oxospiro[3H-isoquinoline-4,1′-cyclopropane]-2-yl)-N-(6-oxo-1H-pyrimidin-2-yl)acetamide]
IC50 [1]: < 10 µM | IC50 [2]: 7.5 µM

O=C(CN1CC2(CC2)c2cc(Br)ccc2C1=O)NCCN1CCOCC1 [Example 128, 2-(6-bromo-1-oxospiro[3H-isoquinoline-4,1′-cyclopropane]-2-yl)-N-(2-morpholin-4-ylethyl)acetamide]
IC50 [1]: 10 to 15 µM | IC50 [2]: 12 µM

CS(=O)(=O)CCNC(=O)CN1CC2(CC2)c2cc(Br)ccc2C1=O [Example 139, 2-(6-bromo-1-oxospiro[3H-isoquinoline-4,1′-cyclopropane]-2-yl)-N-(2-methylsulfonylethyl)acetamide]
IC50 [1]: > 15 µM | IC50 [2]: 26.4 µM

O=C(CN1CC2(CC2)c2cc(Br)ccc2C1=O)Nc1ncn(C2CC2)n1 [Example 422, 2-(6-bromo-1-oxospiro[3H-isoquinoline-4,1′-cyclopropane]-2-yl)-N-(1-cyclopropyl-1,2,4-triazol-3-yl)acetamide]
IC50 [2]: 3.08 µM

Cc1cn2nc(NC(=O)CN3CC4(CC4)c4cc(Br)ccc4C3=O)ccc2n1 [Example 400, 2-(6-bromo-1-oxospiro[3H-isoquinoline-4,1′-cyclopropane]-2-yl)-N-(2-methylimidazo[1,2-b]pyridazin-6-yl)acetamide]
IC50 [2]: 0.612 µM

O=Cc1cnc(NC(=O)CN2CC3(CC3)c3cc(Br)ccc3C2=O)c(F)c1 [Example 37, 2-(6-bromo-1-oxo-spiro[3H-isoquinoline-4,1′-cyclopropane]-2-yl)-N-(3-fluoro-5-formyl-2-pyridyl)acetamide]
IC50 [1]: < 10 µM | IC50 [2]: 1.32 µM

Cc1cc(C#N)cnc1NC(=O)CN1CC2(CC2)c2cc(Br)ccc2C1=O [Example 397, 2-(6-bromo-1-oxospiro[3H-isoquinoline-4,1′-cyclopropane]-2-yl)-N-(5-cyano-3-methylpyridin-2-yl)acetamide]
IC50 [2]: 2 µM

O=C(CN1CC2(CC2)c2cc(Br)ccc2C1=O)Nc1cc2n(n1)CCOC2 [Example 362, 2-(6-bromo-1-oxospiro[3H-isoquinoline-4,1′-cyclopropane]-2-yl)-N-(6,7-dihydro-4H-pyrazolo[5,1-c][1,4]oxazin-2-yl)acetamide]
IC50 [2]: 1.45 µM

O=C(CN1CC2(CC2)c2cc(Br)ccc2C1=O)NC1(CO)CC1 [Example 160, 2-(6-bromo-1-oxospiro[3H-isoquinoline-4,1′-cyclopropane]-2-yl)-N-[1-(hydroxymethyl)cyclopropyl]acetamide]
IC50 [1]: < 10 µM | IC50 [2]: 4.2 µM

Cn1cc(N2CCC(NC(=O)CN3CC4(CC4)c4cc(Br)ccc4C3=O)C2)cn1 (centres unmarked) [Example 416, 2-(6-bromo-1-oxospiro[3H-isoquinoline-4,1′-cyclopropane]-2-yl)-N-[1-(1-methylpyrazol-4-yl)pyrrolidin-3-yl]acetamide]
IC50 [2]: 20.8 µM

O=C(CN1CC2(CC2(F)F)c2cc(Br)ccc2C1=O)Nc1ncc(F)cn1 (single isomer, unassigned) [Example 291, 2-[6-bromo-1′,1′-difluoro-1-oxospiro[3H-isoquinoline-4,2′-cyclopropane]-2-yl]-N-(5-fluoropyrimidin-2-yl)acetamide]
IC50 [3]: < 10 µM | IC50 [4]: 0.037 µM

O=C(CN1CC2(CC2)c2cc(Br)ccc2C1=O)NC1CCN(c2ccc(Cl)nn2)CC1 [Example 165, 2-(6-bromo-1-oxospiro[3H-isoquinoline-4,1′-cyclopropane]-2-yl)-N-[1-(6-chloropyridazin-3-yl)piperidin-4-yl]acetamide]
IC50 [1]: < 10 µM | IC50 [2]: 1.63 µM

C[C@@H](F)[C@H]1CN(CC(=O)Nc2ncc(F)cn2)C(=O)c2ccc(Br)cc21 [Example 294, 2-[(4r)-6-bromo-4-[(1r)-1-fluoroethyl]-1-oxo-3,4-dihydroisoquinolin-2-yl]-N-(5-fluoropyrimidin-2-yl)acetamide]
IC50 [1]: < 10 µM | IC50 [2]: 0.203 µM

O=C(CN1CC2(CC2)c2cc(Br)ccc2C1=S)Nc1ncc(F)cn1 [Example 102, 2-(6-bromo-1-sulfanylidenespiro[3H-isoquinoline-4,1′-cyclopropane]-2-yl)-N-(5-fluoropyrimidin-2-yl)acetamide]
IC50 [1]: < 10 µM | IC50 [2]: 0.169 µM

N#Cc1cnc(NC(=O)CN2C[C@@]3(C[C@@H]3F)c3c(ccc(Br)c3F)C2=O)nc1 (single isomer, unassigned) [Example 221, 2-[(2′s,4r)-6-bromo-2′,5-difluoro-1-oxospiro[3H-isoquinoline-4,1′-cyclopropane]-2-yl]-N-(5-cyanopyrimidin-2-yl)acetamide]
IC50 [1]: < 10 µM | IC50 [2]: 0.014 µM

O=C(CN1C[C@]2(C[C@H]2F)c2cc(I)ccc2C1=O)Nc1ncccn1 [Example 247]
IC50 [1]: < 10 µM | IC50 [2]: 0.01 µM

O=C(CN1CC2(CC2)c2cc(Br)ccc2C1=O)Nc1ncc(C2CC2(F)F)cn1 (centres unmarked) [Example 309, 2-(6-bromo-1-oxospiro[3H-isoquinoline-4,1′-cyclopropane]-2-yl)-N-[5-(2,2-difluorocyclopropyl)pyrimidin-2-yl]acetamide]
IC50 [2]: 0.696 µM

O=C(CN1CC2(CC2)c2cc(Br)ccc2C1=O)N[C@H]1C[C@H](C(F)(F)F)C1 [Example 54, 2-(6-bromo-1-oxo-spiro[3H-isoquinoline-4,1′-cyclopropane]-2-yl)-N-[trans-3-(trifluoromethyl)cyclobutyl]acetamide]
IC50 [1]: < 10 µM | IC50 [2]: 1.55 µM

O=C(CN1CC2(CC2)c2cc(Br)ccc2C1=O)Nc1ccc2cc[nH]c2c1 [Example 44, 2-(6-bromo-1-oxospiro[3H-isoquinoline-4,1′-cyclopropane]-2-yl)-N-(1H-indol-6-yl)acetamide]
IC50 [1]: < 10 µM | IC50 [2]: 1.26 µM

O=C(CN1CC2(CC2)c2cc(Br)ccc2C1=O)Nc1ncc2c(n1)COC2 [Example 213, 2-(6-bromo-1-oxospiro[3H-isoquinoline-4,1′-cyclopropane]-2-yl)-N-(5,7-dihydrofuro[3,4-d]pyrimidin-2-yl)acetamide]
IC50 [1]: < 10 µM | IC50 [2]: 1.34 µM

O=C(CN1CC2(CC2)c2cc(C(F)(F)F)cc(Cl)c2C1=O)Nc1ncc(F)cn1 [Example 354, 2-[8-chloro-1-oxo-6-(trifluoromethyl)spiro[3H-isoquinoline-4,1′-cyclopropane]-2-yl]-N-(5-fluoropyrimidin-2-yl)acetamide]
IC50 [2]: 24 µM

O=C(CN1C[C@@]2(C[C@@H]2F)c2c(ccc(Br)c2F)C1=O)Nc1ncc(C(F)(F)F)cn1 (single isomer, unassigned) [Example 226, 2-[(2′s,4r)-6-bromo-2′,5-difluoro-1-oxospiro[3H-isoquinoline-4,1′-cyclopropane]-2-yl]-N-[5-(trifluoromethyl)pyrimidin-2-yl]acetamide]
IC50 [1]: < 10 µM | IC50 [2]: 0.031 µM

CC1(C)CN(CC(=O)N[C@H]2C[C@@](C)(O)C2)C(=O)c2ccc(Br)cc21 [Example 46, 2-(6-bromo-4,4-dimethyl-1-oxo-3H-isoquinolin-2-yl)-N-(cis-3-hydroxy-3-methyl-cyclobutyl)acetamide]
IC50 [1]: < 10 µM | IC50 [2]: 1.54 µM

N#Cc1cnc(NC(=O)CN2CC3(CC3)c3cc(Br)ccc3C2=O)c(Cl)c1 [Example 395, 2-(6-bromo-1-oxospiro[3H-isoquinoline-4,1′-cyclopropane]-2-yl)-N-(3-chloro-5-cyanopyridin-2-yl)acetamide]
IC50 [2]: 1.38 µM

CC(C)(O)C12CC(NC(=O)CN3CC4(CC4)c4cc(Br)ccc4C3=O)(C1)C2 [Example 49, 2-(6-bromo-1-oxo-spiro[3H-isoquinoline-4,1′-cyclopropane]-2-yl)-N-[3-(1-hydroxy-1-methyl-ethyl)-1-bicyclo[1.1.1]pentanyl]acetamide]
IC50 [1]: < 10 µM | IC50 [2]: 3.01 µM

O=C(CN1CC2(CC2)c2c(ccc(Br)c2Cl)C1=O)Nc1ncc(F)cn1 [Example 83, 2-(6-bromo-5-chloro-1-oxospiro[3H-isoquinoline-4,1′-cyclopropane]-2-yl)-N-(5-fluoropyrimidin-2-yl)acetamide]
IC50 [1]: < 10 µM | IC50 [2]: 0.521 µM

O=C(CN1CC2(CC2)c2cc(Br)ccc2C1=O)Nc1ccc2nncn2c1 [Example 159, 2-(6-bromo-1-oxospiro[3H-isoquinoline-4,1′-cyclopropane]-2-yl)-N-([1,2,4]triazolo[4,3-a]pyridin-6-yl)acetamide]
IC50 [1]: < 10 µM | IC50 [2]: 1.77 µM
